Reference: publication PMC7292393 (PLoS ONE, 2020)
Entries after “also recorded” stand apart in the source; their conditions may differ.

What was measured:
human SUMO1 [1] = biological target: T1, human SUMO1 (Homo sapiens, UniProt P63165); assay: Fluorescence quenching of fisetin; assay type: binding; settings: 0.5 μM fisetin, emission 511.5 nm, corrected for dilution
T1 construct: encoding amino acids 1–97 of mature human SUMO1; host or cells: E. coli BL21 Rosetta (DE3)
Experimental: (§1) The spectrum between 390–600 nm was measured with a PerkinElmer LS-55 fluorescence spectrometer. […] Excitation and emission slit wavelengths were 5 and 10 nm, respectively, with scan speed of 500 nm/min. […] Values were corrected for dilution as follows: Relative fluorescence values were calculated by subtracting fluorescence quenching observed upon addition of buffer alone.

bovine ubiquitin [2] = biological target: T2, bovine ubiquitin (Bos taurus, UniProt P0CG53); assay: Fluorescence quenching of fisetin; assay type: binding; settings: 0.5 μM fisetin, corrected for dilution
T2 construct: native bovine ubiquitin (U6253); purchased Sigma-Aldrich U6253
Experimental: as §1

bovine ubiquitin [3] = biological target: T2, bovine ubiquitin; assay: SPR binding to ubiquitin surface; settings: Fig 2J
Experimental: All injections were performed in a Biacore T200 (GE Healthcare, Chicago, IL) at a flow rate of 20 μl/min in running buffer (20 mM Hepes (pH 7.4), 150 mM NaCl, 5 mM MgCl2, 0.0005% Tween 20) at 25°C. CMD200 and HC1500 sensor chips (Zantec Bioanalytics, Duesseldorf, Germany) were used for the primary and secondary SPR screens and for obtaining SPR sensograms shown in Fig 2I and 2J, respectively. SUMO1 surface in CMD-200 sensor chip and HC1500 sensor chip were generated with immobilization levels 10887 and 19639 resonance units (RU), respectively. Ubiquitin surface in HC1500 sensor chip was generated with 6106 RU. Human SUMO1 and bovine ubiquitin biosensors were prepared by standard amine coupling chemistry as follows: An equal volume of 0.1 M N-hydroxysuccinimide (NHS) and 0.4 M ethyl(dimethylaminopropyl) carbodiimide was injected for 7 min at 5 μl/min over a single flow cell. Following this step, human SUMO1 or bovine ubiquitin (100 μg/ml in pH 4.5 acetate buffer) was injected for 15 min, immediately followed by a 7 min injection of 1M ethanolamine (pH 9). […] RUmax was calculated as 8320/MW ratio, where 8320 is AU of human SUMO1 immobilized onto the chip and MW ratio is the ratio of MW (Da) of SUMO1 to flavonoid. […]

human SUMO1 [4] = biological target: T1, human SUMO1; assay: Differential scanning fluorimetry (DSF) thermal shift; assay type: binding

T1 sequence (P63165 1-97): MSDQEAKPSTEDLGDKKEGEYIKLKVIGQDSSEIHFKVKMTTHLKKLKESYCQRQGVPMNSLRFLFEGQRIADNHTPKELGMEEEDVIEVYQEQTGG

quenching of fisetin fluorescence by SUMO1 (human SUMO1 [1]): Saturable binding was observed | quenching of fisetin fluorescence by ubiquitin (bovine ubiquitin [2]): only marginal quenching | SPR binding to bovine ubiquitin (bovine ubiquitin [3]): failed to bind to bovine ubiquitin | SPR binding to bovine ubiquitin (bovine ubiquitin [3]; listed as fisetin): no appreciable binding | ΔTm at 300 µM (human SUMO1 [4]): < 2 °C
Structure (SMILES): O=c1c(O)c(-c2ccc(O)c(O)c2)oc2cc(O)ccc12 [Fisetin, 3,3',4',7-tetrahydroxyflavone]
effect on DSF thermogram / thermal stability of SUMO1 (human SUMO1 [4]; 2 μM SUMO1, 300 μM flavonoid): cause unfolding of human SUMO1; also recorded: unfolding of the protein at ambient temperature
